For this assay, the target named is T1, APOL1 (Homo sapiens, UniProt O14791).
T1 sequence (O14791 1-398 S342G/I384M): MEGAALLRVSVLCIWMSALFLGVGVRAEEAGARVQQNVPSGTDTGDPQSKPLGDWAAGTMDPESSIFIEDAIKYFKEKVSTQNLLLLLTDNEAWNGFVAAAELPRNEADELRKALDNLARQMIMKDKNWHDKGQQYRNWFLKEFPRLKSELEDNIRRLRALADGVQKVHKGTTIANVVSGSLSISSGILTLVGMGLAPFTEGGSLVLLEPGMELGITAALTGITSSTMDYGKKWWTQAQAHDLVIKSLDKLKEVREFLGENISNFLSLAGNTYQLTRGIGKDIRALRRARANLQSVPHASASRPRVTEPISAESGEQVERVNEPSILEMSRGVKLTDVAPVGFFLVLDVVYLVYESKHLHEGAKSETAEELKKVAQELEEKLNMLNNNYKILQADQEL
Briefly: MultiTox-Fluor Multiplex Cytotoxicity Assay in tet-inducible APOL1 T-REx-HEK293 cells (cell rescue, ratio of dead to live cells). It is filed as cell-based. The note with it: tet-inducible transgenic APOL1 T-REx-HEK293 cell lines, 50 ng/mL tet, 24 hours; read-out: IP50 (i.e., IC50 for cell proliferation). In short, it runs like this: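 T-REx-HEK293 cells with tet-inducible APOL1 were treated with compound (10 μM top, 10-point 3-fold dilution, duplicate) plus 50 ng/mL tetracycline for 24 h at 37° C, in DMEM with 2% tet-free FBS. MultiTox-Fluor protease signals gave a dead/live ratio, normalized to no tet (100% viability) and tet alone (0%).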

Structures are written as SMILES.

For `C[C@H]1C[C@@]2(CCN1Cc1cnn(CCS(C)(=O)=O)c1)OCC(N)c1cc(Cl)sc12` (stereo partly drawn) [Compound 854, (2′S, 7R)-2-chloro-2′-methyl-1′-[[1-(2-methylsulfonylethyl)pyrazol-4-yl]methyl]spiro[4,5-dihydrothieno[2,3-c]pyran-7,4′-piperidine]-4-amine], the IC50 is under 100 nM.
With `CC(=O)NC1CO[C@@]2(CCN(Cc3cnn(CCS(C)(=O)=O)c3)[C@@H](C)C2)c2sc(Cl)cc21` (stereo partly drawn) [Compound 855, N-[(2′S, 7R)-2-chloro-2′-methyl-1′-[[1-(2-methylsulfonylethyl)pyrazol-4-yl]methyl]spiro[4,5-dihydrothieno[2,3-c]pyran-7,4′-piperidine]-4-yl]acetamide], the IC50 is under 100 nM.
For the compound `C[C@H]1C[C@@]2(CCN1Cc1cnn(CCS(C)(=O)=O)c1)OCC(C#N)c1cc(Cl)sc12` (stereo partly drawn) [Compound 856, (2′S, 7R)-2-chloro-2′-methyl-1′-[[1-(2-methylsulfonylethyl)pyrazol-4-yl]methyl]spiro[4,5-dihydrothieno[2,3-c]pyran-7,4′-piperidine]-4-carbonitrile], the IC50 was under 100 nM.
For `CC(=O)N(C)C1CO[C@@]2(CCN(Cc3cnn(CCS(C)(=O)=O)c3)[C@@H](C)C2)c2sc(Cl)cc21` (stereo partly drawn) [Compound 857, N-[(2′S, 7R)-2-chloro-2′-methyl-1′-[[1-(2-methylsulfonylethyl)pyrazol-4-yl]methyl]spiro[4,5-dihydrothieno[2,3-c]pyran-7,4′-piperidine]-4-yl]-N-methyl-acetamide], the IC50 was under 100 nM.
For the compound `Cc1c(Cl)sc2c1C(O)CO[C@@]21CCN(Cc2cnn(CCS(C)(=O)=O)c2)[C@@H](C)C1` (stereo partly drawn) [Compound 858, (2′S, 7R)-2-chloro-2′,3-dimethyl-1′-[[1-(2-methylsulfonylethyl)pyrazol-4-yl]methyl]spiro[4,5-dihydrothieno[2,3-c]pyran-7,4′-piperidine]-4-ol], the IC50 is under 100 nM.
For `C[C@H]1C[C@@]2(CCN1Cc1cnn(CCS(C)(=O)=O)c1)OCC(O)c1c2sc(Cl)c1Cl` (stereo partly drawn) [Compound 860, (2′S, 7R)-2,3-dichloro-2′-methyl-1′-[[1-(2-methylsulfonylethyl)pyrazol-4-yl]methyl]spiro[4,5-dihydrothieno[2,3-c]pyran-7,4′-piperidine]-4-ol], the IC50 was under 100 nM.
Under `C[C@H]1C[C@@]2(CCN1Cc1cnn(CCS(C)(=O)=O)c1)OCC(O)c1c2sc(Cl)c1Cl` (stereo partly drawn) [Compound 861, (2S,4R)-2′,3′-dichloro-2-methyl-1-((1-(2-(methylsulfonyl)ethyl)-1H-pyrazol-4-yl)methyl)-4′l3-spiro[piperidine-4,7′-thieno[3,2-d]pyran]-4′(5′H)-ol] stands 100 to 500 nM; under `C[C@H]1C[C@@]2(CCN1Cc1cn(CCS(C)(=O)=O)nn1)OCC(F)(F)c1cc(Cl)sc12` [Compound 862, (2S,4R)-2′-chloro-4′,4′-difluoro-2-methyl-1-((1-(2-(methylsulfonyl)ethyl)-1H-1,2,3-triazol-4-yl)methyl)-4′,5′-dihydrospiro[piperidine-4,7′-thieno[2,3-c]pyran]], 100 to 500 nM; under `C[C@H]1C[C@@]2(CCN1Cc1cn(CCS(C)(=O)=O)nn1)OCC(F)c1cc(Cl)sc12` (stereo partly drawn) [Compound 863, (2S,4R)-2′-chloro-4′-fluoro-2-methyl-1-((1-(2-(methylsulfonyl)ethyl)-1H-1,2,3-triazol-4-yl)methyl)-4′,5′-dihydrospiro[piperidine-4,7′-thieno[2,3-c]pyran]], 100 to 500 nM.
Under `C[C@H]1C[C@@]2(CCN1C1CCCC1O)OCCc1cc(C(F)(F)F)sc12` (stereo partly drawn) [Compound 864, 2-[(2′S,7R)-2′-methyl-2-(trifluoromethyl)spiro[4,5-dihydrothieno[2,3-c]pyran-7,4′-piperidine]-1′-yl]cyclopentanol] stands 100 to 500 nM; under `C[C@H]1C[C@@]2(CCN1C1CCCC1O)OCCc1cc(C(F)(F)F)sc12` (stereo partly drawn) [Compound 865, 2-[(2′S,7R)-2′-methyl-2-(trifluoromethyl)spiro[4,5-dihydrothieno[2,3-c]pyran-7,4′-piperidine]-1′-yl]cyclopentanol], 100 to 500 nM.
On to `C[C@H]1C[C@@]2(CCN1C1COCC1O)OCCc1cc(C(F)(F)F)sc12` (stereo partly drawn) [Compound 866, 4-[(2′S, 7R)-2′-methyl-2-(trifluoromethyl)spiro[4,5-dihydrothieno[2,3-c]pyran-7,4′-piperidine]-1′-yl]tetrahydrofuran-3-ol], for which the IC50 fell in the range of 100 to 500 nM.
Turning to `C[C@H]1C[C@@]2(CCN1C[C@H](O)C(N)=O)OCCc1cc(C(F)(F)F)sc12` [Compound 867, (2S)-2-hydroxy-3-[(2′S,7R)-2′-methyl-2-(trifluoromethyl)spiro[4,5-dihydrothieno[2,3-c]pyran-7,4′-piperidine]-1′-yl]propanamide], the IC50 lay in the range of 100 to 500 nM.
Under `CNC(=O)[C@@H](O)CN1CC[C@]2(C[C@@H]1C)OCCc1cc(C(F)(F)F)sc12` [Compound 869, (2S)-2-hydroxy-N-methyl-3-[(2′S, 7R)-2′-methyl-2-(trifluoromethyl)spiro[4,5-dihydrothieno[2,3-c]pyran-7,4′-piperidine]-1′-yl]propanamide] stands 500 to 1000 nM; under `C[C@H]1C[C@@]2(CCN1Cc1cn(CCS(C)(=O)=O)nn1)OCCc1cc(C(F)(F)F)sc12` [Compound 870, (2′S, 7R)-2′-methyl-1′-[[1-(2-methylsulfonylethyl)triazol-4-yl]methyl]-2-(trifluoromethyl)spiro[4,5-dihydrothieno[2,3-c]pyran-7,4′-piperidine]], under 100 nM.
Under `C[C@H]1C[C@@]2(CCN1Cc1cn(CCS(C)(=O)=O)nn1)OCCc1c2sc(C(F)(F)F)c1CO` [Compound 871, [(2′S, 7R)-2′-methyl-1′-[[1-(2-methylsulfonylethyl)triazol-4-yl]methyl]-2-(trifluoromethyl)spiro[4,5-dihydrothieno[2,3-c]pyran-7,4′-piperidine]-3-yl]methanol] stands under 100 nM; under `C[C@H]1C[C@@]2(CCN1Cc1cnn(CCS(C)(=O)=O)c1)OCCc1c2sc(C(F)(F)F)c1CO` [Compound 872, [(2′S,7R)-2′-methyl-1′-[[1-(2-methylsulfonylethyl)pyrazol-4-yl]methyl]-2-(trifluoromethyl)spiro[4,5-dihydrothieno[2,3-c]pyran-7,4′-piperidine]-3-yl]methanol], under 100 nM; under `C[C@H]1C[C@@]2(CCN1Cc1cn[nH]c1)OCCc1c2sc(C(F)(F)F)c1CO` [Compound 873, [(2′S, 7R)-2′-methyl-1′-(1H-pyrazol-4-ylmethyl)-2-(trifluoromethyl)spiro[4,5-dihydrothieno[2,3-c]pyran-7,4′-piperidine]-3-yl]methanol], under 100 nM.
Take `C[C@H]1C[C@@]2(CCN1Cc1cn[nH]c1)OC[C@@H](O)c1cc(C(F)(F)F)sc12` [Compound 874, (2′S,4S,7R)-2′-methyl-1′-(1H-pyrazol-4-ylmethyl)-2-(trifluoromethyl)spiro[4,5-dihydrothieno[2,3-c]pyran-7,4′-piperidine]-4-ol]: the IC50 is under 100 nM.
As to `C[C@H]1C[C@@]2(CCN1Cc1cnn(CCO)c1)OCCc1c2sc(C(F)(F)F)c1CO` [Compound 875], the IC50 was under 100 nM.
As to `C[C@H]1C[C@@]2(CCN1Cc1cnn(CC(C)(CO)CO)c1)OCCc1c2sc(C(F)(F)F)c1CO` [Compound 876], the IC50 was under 100 nM.
For the compound `C[C@H]1C[C@@]2(CCN1Cc1ccc3c(c1)n(C)c(=O)n3C)OCCc1c2sc(C(F)(F)F)c1CO` [Compound 877], the IC50 is under 100 nM.
In the case of `CC(O)c1c(C(F)(F)F)sc2c1CCO[C@@]21CCN(Cc2cnn(CCS(C)(=O)=O)c2)[C@@H](C)C1` (stereo partly drawn) [Compound 878], the IC50 is under 100 nM.
As for `CC(O)c1c(C(F)(F)F)sc2c1CCO[C@@]21CCN(Cc2cnn(CCS(C)(=O)=O)c2)[C@@H](C)C1` (stereo partly drawn) [Compound 879], the IC50 is under 100 nM.
As to `C[C@H]1C[C@@]2(CCN1Cc1cnn(CCS(C)(=O)=O)c1)OCC(O)c1cc(C(F)(F)F)sc12` (stereo partly drawn) [Compound 880], the IC50 is under 100 nM.
Consider `C[C@H]1C[C@@]2(CCN1Cc1cnn(C3CN(S(C)(=O)=O)C3)c1)OCCc1c2sc(C(F)(F)F)c1CO` [Compound 883], for which the IC50 was under 100 nM.
Regarding `C[C@H]1C[C@@]2(CCN1Cc1cnn(C3CN(S(C)(=O)=O)C3)c1)OC[C@@H](O)c1cc(C(F)(F)F)sc12` [Compound 884], the IC50 was under 100 nM.
For `C[C@H]1C[C@@]2(CCN1Cc1cnn(CCO)c1)OC[C@@H](O)c1cc(C(F)(F)F)sc12` [Compound 885], the IC50 is under 100 nM.
Regarding `C[C@H]1C[C@@]2(CCN1Cc1cnn(CC(=O)N(C)C)c1)OC[C@@H](O)c1cc(C(F)(F)F)sc12` [Compound 886], the IC50 is under 100 nM.
Take `C[C@H]1C[C@@]2(CCN1Cc1cnn(C[C@H](O)C(C)(C)O)c1)OCCc1c2sc(C(F)(F)F)c1CO` [Compound 887, (2S)-1-[4-[[(2′S, 7R)-3-(hydroxymethyl)-2′-methyl-2-(trifluoromethyl)spiro[4,5-dihydrothieno[2,3-c]pyran-7,4′-piperidine]-1′-yl]methyl]pyrazol-1-yl]-3-methyl-butane-2,3-diol]: the IC50 was under 100 nM.

For the origin of these results see patent US20250171459A1, “2-METHYL-4',5'-DIHYDROSPIRO[PIPERIDINE-4,7'-THIENO[2,3-C]PYRAN] DERIVATIVES AS INHIBITORS OF APOL1 AND METHODS OF USING SAME” (Vertex Pharmaceuticals Incorporated, priority 2022, published 2025).
